From patent US20130034613A1, “FORMULATIONS OF PHOSPHITES” (Ceradis B.V., priority 2009, published 2013)

Assays:
Assay type in all cases: in vivo
[1] = system: rose; test: Phytotoxicity towards rose after spraying (Example 2); details: summary of Table 3
Excerpt: The experimental design is a randomized block design with a plot size of 3 plants per plot. The experiment has 4 replications. Plants are sprayed with solution until run-off occurs. The composition and the dose rate of the different treatments are the same as in example 1, except that calcium lignosulfonate was replaced by sodium lignosulfonate (Borresperse NA®, Borregaard LignoTech Ltd, Germany).
Phytotoxicity is observed one week after spraying. Per plant, the percentage leaf area dead or showing phytotoxicity symptoms is estimated.

[2] = system: grapevine cultivar Merlot; test: Phytotoxicity towards grapevine after spraying; details: summary of Table 4
Excerpt: The experimental design is a randomized block design with a plot size of 3 plants per plot. The experiment has 4 replications. Plants are sprayed with solution until run-off occurs. The composition and the dose rate of the different treatments are the same as in example 1.
Phytotoxicity is observed one week after spraying. Per plant, the percentage leaf area dead or showing phytotoxicity symptoms was estimated.

[3] = system: garden cress (Lepidium sativum) seedlings; test: Phytotoxicity towards garden cress seedlings after spraying; details: summary of Table 2
Method: Two compositions of potassium phosphite are prepared, one with and one without calcium lignosulfonate (Borresperse CA®, Borregaard LignoTech Ltd, Germany). The formulation and the concentration in the spray solution are calculated in such a way that the dosage of phosphite is the same for both compositions (120 mM=14.4 g potassium phosphite/1 spray solution). A control is added in which the adjuvants alone (without lignosulfonate or phosphite) are tested.
Various adjuvants are added to the two compositions: alcohol ethoxylate (commercial product: Genapol EP 2584, Clariant, Germany), di-octyl sulfosuccinate (commercial product Emulsogen SF8, Clariant, Germany), quaternary ammonium surfactant (commercial product Geronol CF/PN-20N, Rhodia, France) and ethoxylated tallow amine (commercial product Ethomeen S25, Akzo Nobel, The Netherlands). All adjuvant products arc added at a concentration of 5 g/l spray solution. For both compositions, a control is added without adjuvant.
Garden cress seedlings are grown in plastic boxes (100 seeds/box) on mineral sand. Boxes were kept at 22° C. One week old seedlings are sprayed with the various spray solutions until run-off of the solutions occurs. Phytotoxicity is observed three days after spraying. The percentage of seedlings dead or showing phytotoxicity symptoms is estimated. […]

Measured: phytotoxicity (in words)

potassium phosphite
phytotoxic: all assays above
